The values below come from patent publication US7981912B2, “Indole acetic acids exhibiting CRTH2 receptor antagonism and uses thereof” (Wyeth LLC, priority 2004, dated 2011).

For this test, the target named is T1, human CRTH2 (Homo sapiens, UniProt Q9Y5Y4).
T1 sequence (Q9Y5Y4 1-395): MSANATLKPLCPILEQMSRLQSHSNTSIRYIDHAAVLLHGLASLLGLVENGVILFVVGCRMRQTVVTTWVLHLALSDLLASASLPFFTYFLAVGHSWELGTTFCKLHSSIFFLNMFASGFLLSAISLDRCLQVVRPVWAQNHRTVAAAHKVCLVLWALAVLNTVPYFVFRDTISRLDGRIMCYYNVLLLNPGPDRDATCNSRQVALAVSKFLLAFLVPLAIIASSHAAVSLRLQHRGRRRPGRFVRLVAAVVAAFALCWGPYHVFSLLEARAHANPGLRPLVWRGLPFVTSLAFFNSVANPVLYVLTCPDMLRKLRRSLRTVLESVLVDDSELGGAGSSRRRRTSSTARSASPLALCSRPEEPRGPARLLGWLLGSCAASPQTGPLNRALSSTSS
Kind of test: CRTH-2 binding assay (scintillation proximity assay, inhibition of 3H-PGD2 binding). Further details: expressed in transfected cells; host or cells: HEK 293EBNA-hCRTH2 (membrane preparation). The note with it: inhibition of 3H-PGD2 (3.6 nM) binding to HEK 293EBNA-hCRTH2 membranes; Ki calculated from IC50. The procedure: A CRTH2 binding assay was developed to measure the ability of compounds to inhibit the binding of PGD2 to human CRTH2 using a scintillation proximity assay.
Membranes containing hCRTH2 receptors were prepared from HEK 293EBNA-hCRTH2 cells (a HEK 293EBNA cell line stably expressing human CRTH2). The cells were grown to confluency, harvested and washed with PBS. The cells were resuspended in 10 mM Hepes pH 7.4, 1 mM EDTA and protease inhibitors and incubated for 30 min on ice. The cells were homogenized and centrifuged for 10 min at 1000×g. The supernate was centrifuged for 30 min at 100,000×g and the membrane pellet was then resusupended in 10 mM Hepes pH 7.4 and 1 mM EDTA. The protein concentration of the membrane preparation was determined by Bradford assay (Bio-Rad).
The ability of compounds to inhibit the interaction of PGD2 to human CRTH2 was determined at seven compound concentrations. Compounds were serially diluted in DMSO then diluted into CRTH2 buffer without glycerol (10 mM Hepes pH 7.4, 1 mM EDTA, 10 mM MnCl2) to six times the final desired concentration. 20 μL of the diluted compounds were transferred into non-surface binding 96 well plates (Corning). Each concentration was done in triplicate. In addition to test compounds, each plate contained 12 control wells. Six of these wells contained 20 μL of CRTH2 buffer without glycerol. These wells were used to measure total binding. Six wells contained 20 μL of CRTH2 buffer without glycerol plus 1.5 mM indomethacin. These wells were used to measure non-specific binding. Next, HEK 293EBNA-hCRTH2 membranes were resuspended in CRTH2 buffer with glycerol (10 mM Hepes pH 7.4, 1 mM EDTA, 10 mM MnCl2, 25% glycerol) so that the final concentration was approximately 20 μg protein/100 μL. Polylysine coated yttrium silicate SPA beads (Amershamn) were added to the membrane mix to a concentration of 0.4 mg/100 μL and finally ^3H-PGD2 was added to the membrane/SPA bead mix to 3.6 nM. 100 μL of the membrane/SPA bead/^3H-PGD2 mix was added to each well of the non-surface binding plates containing the diluted compound plus controls. The plates were incubated for 2 hours at room temperature with shaking and then the plates were counted on a Microbeta scintillation counter (Perkin Elmer) for 1 min per well.
IC50 values were determined from the experimental results by nonlinear regression using Prism 4.0 software. The IC50 values were then used in conjunction with the […] for hCRTH2 and the ^3H-PGD2 concentration used in the experiment to calculate the Ki for each compound.

By Ki is commonly meant a measure of affinity in units of concentration, obtained from inhibition or displacement. Regarding `CCCCN1N=C(c2c(C)n(CC(=O)O)c3ccccc23)[C@H]2CC=CC[C@H]2C1=O` (stereo in doubt) [Example 70, [3-(3-Butyl-4-oxo-3,4,4a,5,8,8a-hexahydro-phthalazin-1-yl)-2-methyl-indol-1-yl]-acetic acid], the Ki was < 1 µM.

As for `Cc1c(C2=NN(CCc3ccccc3)C(=O)[C@@H]3CC=CC[C@H]23)c2ccccc2n1CC(=O)O` (stereo in doubt) [Example 72, [2-Methyl-3-(4-oxo-3-phenethyl-3,4,4a,5,8,8a-hexahydro-phthalazin-1-yl)-indol-1-yl]-acetic acid], the Ki was < 0.1 µM.

Consider `O=C(O)Cn1cc(C2NS(=O)(=O)c3ccccc32)c2ccccc21` (stereo not drawn) [Example 1, [3-(1,1-Dioxo-2,3-dihydro-1λ^6-benzo[d]isothiazol-3-yl)-indol-1-yl]-acetic acid], for which the Ki is < 10 µM.

As for `Cc1ccc2c(c1)c(C1NS(=O)(=O)c3ccccc31)cn2CC(=O)O` (stereo not drawn) [Example 2, [3-(1,1-Dioxo-2,3-dihydro-1H-1λ^6-benzo[d]isothiazol-3-yl)-5-methyl-indol-1-yl]-acetic acid], the inhibition constant (Ki) is < 10 µM.

`Cc1c(C2NS(=O)(=O)c3ccccc32)c2ccccc2n1CC(=O)O` (stereo not drawn) [Example 3, [3-(1,1-Dioxo-2,3-dihydro-1H-1λ^6-benzo[d]isothiazol-3-yl)-2-methyl-indol-1-yl]-acetic acid]: the Ki was < 10 µM.

As to `COc1ccc2c(c1)c(C1NS(=O)(=O)c3ccccc31)cn2CC(=O)O` (stereo not drawn) [Example 4, [3-(1,1-Dioxo-2,3-dihydro-1H-1λ^6-benzo[d]isothiazol-3-yl)-5-methoxy-indol-1-yl]-acetic acid], the Ki is < 10 µM.

For `O=C(O)Cn1cc(C2NS(=O)(=O)c3ccccc32)c2cc(Cl)ccc21` (stereo not drawn) [Example 5, [5-Chloro-3-(1,1-dioxo-2,3-dihydro-1H-1λ^6-benzo[d]isothiazol-3-yl)-indol-1-yl]-acetic acid], the Ki is < 10 µM.

Take `Cc1c(C2NS(=O)(=O)c3ccccc32)c2cc(Cl)ccc2n1CC(=O)O` (stereo not drawn) [Example 6, [5-Chloro-3-(1,1-dioxo-2,3-dihydro-1H-1λ^6-benzo[d]isothiazol-3-yl)-2-methyl-indol-1-yl]-acetic acid]: the Ki is < 1 µM.

For `Cc1ccc2c(c1)c(C1NS(=O)(=O)c3ccccc31)c(C)n2CC(=O)O` (stereo not drawn) [Example 7, [3-(1,1-Dioxo-2,3-dihydro-1H-1λ^6-benzo[d]isothiazol-3-yl)-2,5-dimethyl-indol-1-yl]-acetic acid], the Ki is < 10 µM.

As for `O=C(O)Cn1cc(C2NS(=O)(=O)c3ccccc32)c2cc(Br)ccc21` (stereo not drawn) [Example 8, [5-Bromo-3-(1,1-dioxo-2,3-dihydro-1H-1λ^6-benzo[d]isothiazol-3-yl)-indol-1-yl]-acetic acid], the Ki is < 10 µM.

Turning to `N#Cc1ccc2c(c1)c(C1NS(=O)(=O)c3ccccc31)cn2CC(=O)O` (stereo not drawn) [Example 9, [5-Cyano-3-(1,1-dioxo-2,3-dihydro-1H-1λ^6-benzo[d]isothiazol-3-yl)-indol-1-yl]-acetic acid], the Ki is < 10 µM.

`Cc1c(C2NS(=O)(=O)c3ccccc32)c2cc(F)ccc2n1CC(=O)O` (stereo not drawn) [Example 10, [3-(1,1-Dioxo-2,3-dihydro-1H-1λ^6-benzo[d]isothiazol-3-yl)-5-fluoro-2-methyl-indol-1-yl]-acetic acid]: the Ki was < 1 µM.

For the compound `O=C(O)Cn1cc(C2NS(=O)(=O)c3ccccc32)c2c(Cl)cccc21` (stereo not drawn) [Example 11, [4-Chloro-3-(1,1-dioxo-2,3-dihydro-1H-1λ^6-benzo[d]isothiazol-3-yl)-indol-1-yl]-acetic acid], the inhibitory constant (Ki) was < 1 µM.

For `O=C(O)Cn1cc(C2NS(=O)(=O)c3ccccc32)c2ccc(Cl)cc21` (stereo not drawn) [Example 12, [6-Chloro-3-(1,1-dioxo-2,3-dihydro-1H-1λ^6-benzo[d]isothiazol-3-yl)-indol-1-yl]-acetic acid], the inhibition constant Ki was < 1 µM.

For the compound `Cc1c(C2NS(=O)(=O)c3cc(F)ccc32)c2ccccc2n1CC(=O)O` (stereo not drawn) [Example 13, [3-(6-Fluoro-1,1-dioxo-2,3-dihydro-1H-1λ^6-benzo[d]isothiazol-3-yl)-2-methyl-indol-1-yl]-acetic acid], the Ki was < 1 µM.

On to `CN1C(c2cn(CC(=O)O)c3ccccc23)c2ccccc2S1(=O)=O` (stereo not drawn) [Example 14, [3-(2-Methyl-1,1-dioxo-2,3-dihydro-1H-1λ^6-benzo[d]isothiazol-3-yl)-indol-1-yl]-acetic acid], for which the Ki was < 10 µM.

As to `O=C(O)Cn1cc(-c2nn(Cc3ccccc3)c(=O)c3ccccc23)c2ccccc21` [Example 15, [3-(3-Benzyl-4-oxo-3,4-dihydro-phthalazin-1-yl)-indol-1-yl]-acetic acid], the Ki was < 1 µM.

`O=C(O)Cn1cc(C2=NN(Cc3ccccc3)S(=O)(=O)c3ccccc32)c2ccccc21` [Example 17, [3-(2-Benzyl-1,1-dioxo-1,2-dihydro-1λ6-benzo[e][1,2,3]thiadiazin-4-yl)-indol-1-yl]-acetic acid]: the inhibition constant (Ki) is < 1 µM.

Consider `CN1N=C(c2cn(CC(=O)O)c3ccccc23)c2ccccc2S1(=O)=O` [Example 18, [3-(2-Methyl-1,1-dioxo-1,2-dihydro-1λ6-benzo[e][1,2,3]thiadiazin-4-yl)-indol-1-yl]-acetic acid], for which the Ki was < 10 µM.

Take `Cc1c(C2=NN(CCc3ccccc3)S(=O)(=O)c3ccccc32)c2ccccc2n1CC(=O)O` [Example 19, [3-(1,1-Dioxo-2-phenethyl-1,2-dihydro-1λ^6-benzo[e][1,2,3]thiadiazin-4-yl)-2-methyl-indol-1-yl]-acetic acid]: the Ki is < 0.1 µM.

With `CN1C(=O)c2ccccc2C1c1cn(CC(=O)O)c2ccccc12` (stereo not drawn) [Example 20, [3-(2-Methyl-3-oxo-2,3-dihydro-1H-isoindol-1-yl)-indol-1-yl]-acetic acid], the Ki was > 10 µM.

In the case of `Cc1c(-c2ccc(=O)n(Cc3ccccc3)n2)c2cc(Cl)ccc2n1CC(=O)O` [Example 21, [3-(1-Benzyl-6-oxo-1,6-dihydro-pyridazin-3-yl)-5-chloro-2-methyl-indol-1-yl]-acetic acid], the Ki was < 0.1 µM.

With `Cc1noc(C)c1CN1C(=O)c2ccccc2C1c1cn(CC(=O)O)c2ccccc12` (stereo not drawn) [Example 22, {3-[2-(3,5-Dimethyl-isoxazol-4-ylmethyl)-3-oxo-2,3-dihydro-1H-isoindol-1-yl]-indol-1-yl}-acetic acid], the Ki is < 1 µM.

`Cc1c(C2=NN(CCC(C)C)S(=O)(=O)c3ccccc32)c2ccccc2n1CC(=O)O` [Example 23, {2-Methyl-3-[2-(3-methyl-butyl)-1,1-dioxo-1,2-dihydro-1λ^6-benzo[e][1,2,3]thiadiazin-4-yl]-indol-1-yl}-acetic acid]: the Ki was < 0.1 µM.

As to `Cc1c(-c2nn(CCOc3ccc(Cl)cc3)c(=O)c3ccccc23)c2cc(Cl)ccc2n1CC(=O)O` [Example 25, (5-Chloro-3-{3-[2-(4-chloro-phenoxy)-ethyl]-4-oxo-3,4-dihydro-phthalazin-1-yl}-2-methyl-indol-1-yl)-acetic acid], the Ki is < 0.1 µM.

As to `Cc1c(-c2nn(Cc3nc4ccccc4s3)c(=O)c3ccccc23)c2cc(Cl)ccc2n1CC(=O)O` [Example 26, [3-(3-Benzothiazol-2-ylmethyl-4-oxo-3,4-dihydro-phthalazin-1-yl)-5-chloro-2-methyl-indol-1-yl]-acetic acid], the Ki is < 0.1 µM.

Consider `Cc1c(-c2nn(CC3COc4ccccc4O3)c(=O)c3ccccc23)c2cc(Cl)ccc2n1CC(=O)O` (stereo not drawn) [Example 27, {5-Chloro-3-[3-(2,3-dihydro-benzo[1,4]dioxin-2-ylmethyl)-4-oxo-3,4-dihydro-phthalazin-1-yl]-2-methyl-indol-1-yl}-acetic acid], for which the Ki was < 0.1 µM.
